Read-outs that look alike come from different tables or passages of the source.
Target: human H4 receptor (Homo sapiens (Human), UniProt Q9H3N8)
Assay: Binding assay on recombinant human histamine H4 receptor ([3H]histamine competition, SK-N-MC cell membranes)
Conditions: [3H]histamine 10 nM, average of results
Experimental: Binding Assay on Recombinant Human Histamine H4Receptor
Cell pellets from SK-N-MC cells stably or transiently transfected with human H4 receptor (NCBI accession No. AF312230) were used for the binding assays. Cell pellets were homogenized in 50 mM Tris/5 mM EDTA buffer and supernatants from an 800 g spin were collected and recentrifuged at 30,000 g for 30 min. Pellets were rehomogenized in 50 mM Tris/5 mM EDTA buffer. […] Membranes were harvested by rapid filtration using the 96 well Brandel system (Table 1, Brandel) or a cell harvester (Table 1, Cell Harvester) using a Whatman GF/C filter or filter plates treated with 0.5% polyethylenimine (PEI), and washed 4 times with ice-cold 50 mM Tris/5 mM EDTA buffer. Filters were then dried, mixed with scintillant and radioactive counts were determined. […] Where activity is shown as greater than (>) a particular value, the value is the highest concentration tested.

[1] = membranes harvested with cell harvester, read-out: Cell Harvester Ki
[2] = membranes harvested with 96 well Brandel system, read-out: Brandel Ki

Chain of human H4 receptor (Q9H3N8 whole entry): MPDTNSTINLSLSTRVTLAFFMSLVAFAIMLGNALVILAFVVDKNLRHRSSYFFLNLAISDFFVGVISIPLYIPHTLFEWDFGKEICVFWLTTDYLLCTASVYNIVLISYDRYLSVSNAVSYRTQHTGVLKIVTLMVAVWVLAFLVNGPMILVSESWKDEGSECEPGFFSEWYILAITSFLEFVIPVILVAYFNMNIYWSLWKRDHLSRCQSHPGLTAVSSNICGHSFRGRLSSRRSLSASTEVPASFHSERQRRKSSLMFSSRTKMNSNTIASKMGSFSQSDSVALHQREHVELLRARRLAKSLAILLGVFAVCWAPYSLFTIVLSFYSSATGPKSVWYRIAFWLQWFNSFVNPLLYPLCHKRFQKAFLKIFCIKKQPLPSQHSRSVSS

Structure (SMILES)	Ki [1]	Ki [2]
CN[C@H]1CCN(c2ccnc(NCCOC)c2)C1 [Example 238, N-(2-Methoxyethyl)-4-[(3S)-3-(methylamino)pyrrolidin-1-yl]pyridin-2-amine]	555 nM	–
c1ccc(CNc2cc(N3CCNCC3)cnn2)cc1 [Example 348, N-Benzyl-5-piperazin-1-ylpyridazin-3-amine]	> 10000 nM	–
CN1CCN(c2ccnc(NCC3CCCO3)n2)CC1 (stereo not shown) [Example 50, 4-(4-Methylpiperazin-1-yl)-N-(tetrahydrofuran-2-ylmethyl)pyrimidin-2-amine]	33.2 nM	–
NC1CN(c2cnnc(NC3CC4CCC3C4)c2)C1 (stereo not shown) [Example 322, 5-(3-Aminoazetidin-1-yl)-N-bicyclo[2.2.1]hept-2-ylpyridazin-3-amine]	88.1 nM	–
CN1CCN(c2ccnc(NCC3CCCC3)n2)CC1 [Example 119, N-(Cyclopentylmethyl)-4-(4-methylpiperazin-1-yl)pyrimidin-2-amine]	22.9 nM	–
CN(CCN)c1cnnc(NCC2CCCC2)c1 [Example 303, N^5-(2-Aminoethyl)-N^3-(cyclopentylmethyl)-N^5-methylpyridazine-3,5-diamine]	417 nM	–
NC1CN(c2ccnc(NC3CCCC3)n2)C1 [Example 85, 4-(3-Aminoazetidin-1-yl)-N-cyclopentylpyrimidin-2-amine]	18.2 nM	–
CN[C@@H]1CCN(c2ccnc(NCC3CCCO3)n2)C1 (stereo partly drawn) [Example 81, [4-(3R)-(3-Methylamino-pyrrolidin-1-yl)-pyrimidin-2-yl]-(tetrahydro-furan-2-ylmethyl)-amine]	24.7 nM	–
CN[C@H]1CCN(c2ccnc(NCc3ccccc3)c2)C1 [Example 237, N-Benzyl-4-[(3S)-3-(methylamino)pyrrolidin-1-yl]pyridin-2-amine]	585 nM	–
COCCNc1cc(N2CC[C@@H](N)C2)cnn1 [Example 298, 5-[(3R)-3-Aminopyrrolidin-1-yl]-N-(2-methoxyethyl)pyridazin-3-amine]	> 10000 nM	–
Cc1ccc(CNc2nccc(N3CCNCC3)n2)cc1 [Example 156, N-(4-Methylbenzyl)-4-piperazin-1-ylpyrimidin-2-amine]	413 nM	–
N[C@H]1CCN(c2ccnc(NCC3CCCC3)n2)C1 [Example 149, 4-[(3S)-3-Aminopyrrolidin-1-yl]-N-(cyclopentylmethyl)pyrimidin-2-amine]	23.8 nM	–
CN[C@@H]1CCN(c2ccnc(NCCc3ccccc3)n2)C1 [Example 183, 4-[(3R)-3-(Methylamino)pyrrolidin-1-yl]-N-(2-phenylethyl)pyrimidin-2-amine]	15.6 nM	–
CN1CCN(c2cnnc(NCC(C)(C)C)c2)CC1 [Example 404, 5-(4-methylpiperazin-1-yl)-N-neopentylpyridazin-3-amine dihydro chloride]	4300 nM	–
N[C@@H]1CCN(c2ccnc(NC3CCOCC3)n2)C1 [Example 30, 4-[(3R)-3-Aminopyrrolidin-1-yl]-N-(tetrahydro-2H-pyran-4-yl)pyrimidin-2-amine]	91.8 nM	42.4 nM
CCCCNc1cc(N2CC[C@@H](NC)C2)cnn1 [Example 100, N-Butyl-5-[(3R)-3-(methylamino)pyrrolidin-1-yl]pyridazin-3-amine]	31 nM	31 nM
c1nnc(NC2CC2)cc1N1CCNCC1 [Example 315, N-Cyclopropyl-5-piperazin-1-ylpyridazin-3-amine]	1920 nM	–
CC(C)(C)CNc1nccc(N2CC(N)C2)n1 [Example 88, 4-(3-Aminoazetidin-1-yl)-N-(2,2-dimethylpropyl)pyrimidin-2-amine]	42.7 nM	–
c1nnc(NCC2CC2)cc1N1CCNCC1 [Example 361, N-(Cyclopropylmethyl)-5-piperazin-1-ylpyridazin-3-amine]	1230 nM	–
CC1C(Nc2cc(N3CCN(C)CC3)ccn2)C[C@H]2C[C@@H]1C2(C)C (stereo partly drawn) [Example 232, 4-(4-Methylpiperazin-1-yl)-N-[(1S,5R)-2,6,6-trimethylbicyclo[3.1.1]hept-3-yl]pyridin-2-amine]	716 nM	–

Reference: patent publication US9732087B2, “Diamino-pyridine, pyrimidine, and pyridazine modulators of the histamine H4 receptor” (JANSSEN PHARMACEUTICA NV, priority 2008, dated 2017)
